Assays:
[1] = tested on: DU-145 cells; test: Cell death of sub-confluent DU-145 cells (adherent cell counting); type: cell-based, human
Method: The PC-3 and DU-145 cells (1×10^5/in 1 ml of a culture fluid per hole using a 24-hole plate) were cultured in a DMEM culture fluid (containing 10% of FBS, 1% of P/S, and 1% of fungizone) under 5% of CO2, at 37° C., for three days, and when the cells reached sub-confluence, the culture fluid was exchanged for the one containing the DHMBA (0.01, 0.1, 1, 10, 100, or 1000 μM), and the cells were cultured for 24 and 48 hours. After the culture, the cells adhering to the bottom surface of the dish were removed and counted. In another experiment, after the culture for three days, when the cells reached sub-confluence, the culture fluid was exchanged for a culture fluid containing the DHMBA (1 or 10 μM) and a caspase-3 inhibitor (10 μM), and the cells were counted after the culture for 48 hours. Further, after the culture for three days, when the cells reached sub-confluence, the culture fluid was exchanged for a culture fluid obtained by adding gemcitabine (0.1, 1, 10, 50 or 100 nM) or CH223191 (1, 10, and 25 μM) to a DMEM culture fluid containing the DHMBA (1 or 10 μM) or not containing the DHMBA, and the cells were counted after the culture for 48 hours. […]

[2] = tested on: DU-145 cells; test: Cell migration scratch assay, DU-145 cells; type: cell-based, human; conditions: DHMBA 1, 10, 100, or 1000 μM, 48 hours
Method: The migration of the prostate cancer PC-3 and DU-145 cells was examined using a scratch assay. The PC-3 and DU-145 cells (the cell number of 2×10^5/in 1 ml of a culture fluid per hole using a 24-hole plate) were cultured in a DMEM culture fluid containing 10% of FBS, 1% of P/S, and 1% of fungizone under 5% of CO2, at 37° C., for 48 hours, and a straight line scratch was performed using a pipette tip (200 μl) when the cells reached confluence. Free cells were washed with PBS to be removed, the above-described culture fluid (containing 0.1, 1, 10, 100, or 1000 μM of the DHMBA) was added, and the cells were cultured for 48 hours. After the culture, intervals of cell-free parts were measured.
The PC-3 and DU-145 cells (the cell number of 2× 10^5/1 ml of a culture fluid per hole using a 24-hole plate) were cultured under 5% of CO2, at 37° C., for 48 hours in a DMEM culture fluid containing 10% of FBS, 1% of P/S, and 1% of fungizone, and a straight line scratch was performed using a pipette tip (200 μl) when the cells reached confluence. Free cells were washed with PBS to be removed, the above-described culture fluid (containing 0.1, 1, 10, 100, or 1000 μM of the DHMBA) was added, and the cells were cultured for 48 hours. After the culture, intervals of cell-free parts were measured. […]

COc1c(O)cc(CO)cc1O [DHMBA, 3,5-dihydroxy-4-methoxybenzyl alcohol]
cell death ([1]; DHMBA 1, 10, 100, or 1000 μM, 24 and 48 hours): significantly increased
increase of cell death in the presence of caspase-3 inhibitor ([1]; DHMBA 1 or 10 μM with caspase-3 inhibitor 10 μM, 48 hours): not caused
migration [2]: significantly inhibited
